Reference: ChEMBL document CHEMBL4834468, “Enantioselective Synthesis and Profiling of Potent, Nonlinear Analogues of Antimalarial Tetraoxanes E209 and N205” (ACS Med Chem Lett, 2021)
In brackets after ≈: the same amount, converted by molar mass.

What was measured:
[1] = Solubility of compound in 0.1 M HCl assessed as equilibrium pH; format: physicochemical; conditions: buffer
[2] = Aqueous solubility of compound in PBS at pH 7.4; format: physicochemical
[3] = Intrinsic clearance in human liver microsome up to 30 mins by LC-MS analysis; format: ADME; conditions: liver microsomes, read-out: CLH
[4] = Solubility of compound in 0.1 M HCl; format: physicochemical
[5] = Intrinsic clearance in rat hepatocytes measured per 10^6 cells up to 120 mins by LC-MS analysis; format: ADME, cell-based, Hepatocyte; conditions: read-out: CLH
[6] = Solubility of the compound in FaSSIF; format: physicochemical
[7] = system: Plasmodium falciparum; test: microbe, parasite or virus in culture; conditions: D10, 72 h
Description: Antiplasmodial activity against chloroquine-sensitive Plasmodium falciparum D10 incubated for 72 hrs by spectrophotometry based parasite lactate dehydrogenase assay

[8] = system: Plasmodium falciparum; test: microbe, parasite or virus in culture; conditions: W2, 72 h
Description: Antiplasmodial activity against chloroquine-resistant Plasmodium falciparum W2 incubated for 72 hrs by spectrophotometry based parasite lactate dehydrogenase assay

[9] = Solubility of the compound in FaSSIF assessed as equilibrium pH; format: physicochemical; conditions: simulated gi fluid
[10] = Intrinsic clearance in mouse liver microsome by LC-MS/MS analysis; format: ADME, microsomes
[11] = Intrinsic clearance in mouse liver microsome assessed as half life by LC-MS/MS analysis; format: ADME; conditions: microsomes
[12] = system: Plasmodium falciparum; test: Antiplasmodial activity against chloroquine-sensitive Plasmodium falciparum 3D7; format: functional, organism-based
[13] = Tmax in Sprague-Dawley rat at 10 mg/kg, po administered as single dose; format: ADME, organism-based; conditions: in vivo
[14] = Oral bioavailability in Sprague-Dawley rat at 10 mg/kg administered as single dose; format: ADME, organism-based; conditions: in vivo
[15] = AUC (infinity) in Sprague-Dawley rat at 10 mg/kg, po administered as single dose; format: ADME, organism-based; set-up: time infinity, route oral, dose 10 mg/kg; conditions: in vivo
[16] = Cmax in Sprague-Dawley rat at 10 mg/kg, po administered as single dose; format: ADME, organism-based; set-up: route oral, dose 10 mg/kg; conditions: in vivo

Compound | pH [1] | solubility [2] | microsomal CLint [3] | solubility [4] | hepatocyte CLint [5] | solubility at 1 h [6] | IC50 [7] | IC50 [8] | pH [9] | further results
FC1CCN(Cc2ccc([C@H]3CCCC4(C3)OOC3(OO4)C4CC5CC(C4)CC3C5)cc2)CC1 (some centres undefined) | 1.14 | < 0.1 µM | 26.7 µL/min/mg | 0.06 mg/mL (≈ 127 µM) | 30.7 µL/min/1e6 cells | 0.189 mg/mL (≈ 401 µM) | 0.0165 µM | 0.0149 µM | 6.44 | –
FC1CCN(Cc2ccc(C3CCCC4(C3)OOC3(OO4)C4CC5CC(C4)CC3C5)cc2)CC1 (racemic) | – | – | – | – | – | – | 0.0157 µM | 0.0144 µM | – | –
c1cc(C2CCCC3(C2)OOC2(OO3)C3CC4CC(C3)CC2C4)ccc1OCCN1CCOCC1 (centres undefined) | – | – | – | – | – | – | 0.0164 µM | 0.0177 µM | – | –
c1cc([C@H]2CCCC3(C2)OOC2(OO3)C3CC4CC(C3)CC2C4)ccc1OCCN1CCOCC1 (some centres undefined) | 1.11 | 0.1 µM (≈ 0.0486 µg/mL) | 22.1 µL/min/mg | 0.284 mg/mL (≈ 585 µM) | 49.2 µL/min/1e6 cells | 0.069 mg/mL (≈ 142 µM) | 0.016 µM | 0.0158 µM | 6.42 | –
FC1CCN(CCOc2ccc(C3CCCC4(C3)OOC3(OO4)C4CC5CC(C4)CC3C5)cc2)CC1 (racemic) | – | – | – | – | – | – | 0.0129 µM | 0.0128 µM | – | –
NC1CCN(C(=O)O[C@@H]2CCC[C@]3(C2)OOC2(O3)C3CC4CC(C3)CC2C4)CC1 (some centres undefined) | – | – | – | – | – | – | – | – | – | microsomal CLint ([10]; liver microsomes, read-out: CLH): 155 µL/min/mg; EC50 [8]: 0.0018 µM
CC(C)(N)CNC(=O)C[C@H]1CC[C@]2(CC1)OO[C@]1(O2)C2CC3CC(C2)CC1C3 [OZ277] | – | – | – | – | – | – | – | – | – | CLH ([10]; microsomes): 5.4 µL/min/mg; t1/2 [11]: 2.13 h
FC1CCN(CCOc2ccc([C@@H]3CCCC4(C3)OOC3(OO4)C4CC5CC(C4)CC3C5)cc2)CC1 (some centres undefined) | – | 0.1 µM (≈ 0.0502 µg/mL) | 19.8 µL/min/mg | – | 13.5 µL/min/1e6 cells | – | 0.0175 µM | 0.0192 µM | – | –
FC1CCN(CCOc2ccc(C3CCC4(CC3)OOC3(OO4)C4CC5CC(C4)CC3C5)cc2)CC1 (centres undefined) | 1.13 | 0.1 µM (≈ 0.0502 µg/mL) | 23 µL/min/mg | 1.79 mg/mL (≈ 3570 µM) | 12 µL/min/1e6 cells | 0.215 mg/mL (≈ 429 µM) | 0.00896 µM | 0.00849 µM | 6.42 | –
c1cc(C2CCCC3(C2)OOC2(OO3)C3CC4CC(C3)CC2C4)ccc1CN1CCOCC1 (racemic) | – | – | – | – | – | – | 0.0154 µM | 0.0112 µM | – | –
C[C@H]1[C@@H](O)O[C@@H]2O[C@@]3(C)CC[C@H]4[C@H](C)CC[C@@H]1[C@@]24OO3 [ARTENIMOL] | – | – | – | – | – | – | 0.00259 µM | 0.00102 µM | – | –
c1cc([C@H]2CCCC3(C2)OOC2(OO3)C3CC4CC(C3)CC2C4)ccc1CN1CCOCC1 (some centres undefined) | 1.13 | 0.1 µM (≈ 0.0456 µg/mL) | 19.7 µL/min/mg | 0.165 mg/mL (≈ 362 µM) | 50.2 µL/min/1e6 cells | 0.248 mg/mL (≈ 544 µM) | 0.0152 µM | 0.0152 µM | 6.42 | –
c1cc(C2CCC3(CC2)OOC2(OO3)C3CC4CC(C3)CC2C4)ccc1OCCN1CCOCC1 (centres undefined) | – | – | – | – | – | – | 0.0124 µM | 0.0101 µM | – | –
FC1CCN(Cc2ccc(C3CCC4(CC3)OOC3(OO4)C4CC5CC(C4)CC3C5)cc2)CC1 (centres undefined) | 1 | – | – | 0.101 mg/mL (≈ 214 µM) | – | 0.0148 mg/mL (≈ 31.4 µM) | 0.0161 µM | 0.0117 µM | 6.1 | –
FC1CCN(Cc2ccc([C@@H]3CCCC4(C3)OOC3(OO4)C4CC5CC(C4)CC3C5)cc2)CC1 (some centres undefined) | 1.12 | 0.1 µM (≈ 0.0472 µg/mL) | 35.9 µL/min/mg | 0.095 mg/mL (≈ 201 µM) | 19.2 µL/min/1e6 cells | 0.195 mg/mL (≈ 413 µM) | 0.0106 µM | 0.0103 µM | 6.43 | –
FC1CCN(CCOc2ccc([C@H]3CCCC4(C3)OOC3(OO4)C4CC5CC(C4)CC3C5)cc2)CC1 (some centres undefined) | 1.14 | 0.1 µM (≈ 0.0502 µg/mL) | 26.3 µL/min/mg | 1.27 mg/mL (≈ 2530 µM) | 16.7 µL/min/1e6 cells | 0.413 mg/mL (≈ 823 µM) | 0.0208 µM | 0.0225 µM | 6.43 | –
c1cc([C@H]2CC[C@]3(CC2)OO[C@]2(O3)C3CC4CC(C3)CC2C4)ccc1OCCN1CCOCC1 [ARTEFENOMEL] | – | 0.85 µM (≈ 0.399 µg/mL) | – | – | – | 0.12 mg/mL (≈ 256 µM) | – | – | 6.6 | IC50 [12]: 0.0051 µM
c1cc(C2CCC3(CC2)OOC2(OO3)C3CC4CC(C3)CC2C4)ccc1CN1CCOCC1 (centres undefined) | 1 | 0.106 µM (≈ 0.0483 µg/mL) | – | 0.0212 mg/mL (≈ 46.5 µM) | – | 0.024 mg/mL (≈ 52.7 µM) | 0.00938 µM | 0.00865 µM | 6.1 | Tmax [13]: 4.33 h; bioavailability [14]: 41.3%; AUC(0-inf) [15]: 0.608 µg·h/mL; Cmax [16]: 0.136 µg/mL
c1cc([C@@H]2CCCC3(C2)OOC2(OO3)C3CC4CC(C3)CC2C4)ccc1OCCN1CCOCC1 (some centres undefined) | – | 0.1 µM (≈ 0.0486 µg/mL) | 22.2 µL/min/mg | – | 21.6 µL/min/1e6 cells | – | 0.0174 µM | 0.016 µM | – | –
c1cc([C@@H]2CCCC3(C2)OOC2(OO3)C3CC4CC(C3)CC2C4)ccc1CN1CCOCC1 (some centres undefined) | 1.12 | 0.1 µM (≈ 0.0456 µg/mL) | 27.1 µL/min/mg | 0.188 mg/mL (≈ 413 µM) | 26.2 µL/min/1e6 cells | 0.324 mg/mL (≈ 711 µM) | 0.0125 µM | 0.0112 µM | 6.43 | Tmax [13]: 2 h; bioavailability [14]: 76.4%; AUC(0-inf) [15]: 1.44 µg·h/mL; Cmax [16]: 0.41 µg/mL
